In assay [1] the test system is symmetric di-methyl arginine in Z-138 cells. Put plainly: Z-138 Methylation Assay (In Cell Western for symmetric di-methyl arginine and DNA content). It counts as cell-based. The conditions noted are these: Homo sapiens, 96 hours incubation, read-out: ICW EC50. An excerpt: [formula] Where top and bottom are the normally allowed to float, but may be fixed at 100 or 0 respectively in a 3-parameter fit. The Hill Coefficient normally allowed to float but may also be fixed at 1 in a 3-parameter fit. Y is the % inhibition and X is the compound concentration. Z-138 Methylation Assay
Z-138 suspension cells were purchased from ATCC (American Type Culture Collection, Manassas, Va.). RPMI/Glutamax medium, penicillin-streptomycin, heat inactivated fetal bovine serum, and D-PBS were purchased from Life Technologies, Grand Island, N.Y., USA. Odyssey blocking buffer, 800CW goat anti-rabbit IgG (H+L) antibody, and Licor Odyssey infrared scanner were purchased from Licor Biosciences, Lincoln, Nebr., USA. Symmetric di-methyl arginine antibody was purchased from EMD Millipore, Billerica, Mass., USA. 16% Paraformaldehyde was purchased from Electron Microscopy Sciences, Hatfield, Pa., USA.
Z-138 suspension cells were maintained in growth medium (RPMI 1640 supplemented with 10% v/v heat inactivated fetal bovine serum and 100 units/mL penicillin-streptomycin) and cultured at 37° C. under 5% CO2.
Cell Treatment, in Cell Western (ICW) for Detection of Symmetric Di-Methyl Arginine and DNA Content.
Z-138 cells were seeded in assay medium at a concentration of 50,000 cells per mL to a 384-well cell culture plate with 50 μL per well. Compound (100 nL) from 384 well source plates was added directly to 384 well cell plate. Plates were incubated at 37° C., 5% CO2 for 96 hours. After four days of incubation, 40 μL of cells from incubated plates were added to poly-D-lysine coated 384 well culture plates (BD Biosciences 356697). Plates were incubated at room temperature for 30 minutes then incubated at 37° C., 5% CO2 for 5 hours. After the incubation, 40 μL per well of 8% paraformaldehyde in PBS (16% paraformaldahyde was diluted to 8% in PBS) was added to each plate and incubated for 30 minutes. Plates were transferred to a Biotek 405 plate washer and washed 5 times with 100 μL per well of wash buffer (IX PBS with 0.1% Triton X-100 (v/v)). Next 30 μL per well of Odyssey blocking buffer were added to each plate and incubated 1 hour at room temperature. Blocking buffer was removed and 20 μL per well of primary antibody was added (symmetric di-methyl arginine diluted 1:100 in Odyssey buffer with 0.1% Tween 20 (v/v)) and plates were incubated overnight (16 hours) at 4° C. Plates were washed 5 times with 100 μL per well of wash buffer. Next 20 μL per well of secondary antibody was added (1:200 800CW goat anti-rabbit IgG (H+L) antibody, 1:1000 DRAQ5 (Biostatus limited) in Odyssey buffer with 0.1% Tween 20 (v/v)) and incubated for 1 hour at room temperature. The plates were washed 5 times with 100 μL per well wash buffer then 1 time with 100 μL per well of water. Plates were allowed to dry at room temperature then imaged on the Licor Odyssey machine which measures integrated intensity at 700 nm and 800 nm wavelengths. Both 700 and 800 channels were scanned.
First, the ratio for each well was determined by:
Each plate included fourteen control wells of DMSO only treatment (minimum inhibition) as well as fourteen control wells for maximum inhibition treated with 3 μM of a reference compound (Background wells). The average of the ratio values for each control type was calculated and used to determine the percent inhibition for each test well in the plate. Reference compound was serially diluted three-fold in DMSO for a total of nine test concentrations, beginning at 3 μM. Percent inhibition was determined and IC50 curves were generated using triplicate wells per concentration of compound. […]

Assay [2] deals with Z-138 cells. Briefly: Z-138 Proliferation Assay (Cell Titer Glo). In kind it is cell-based. The conditions noted are these: Homo sapiens, 120 h, 5 days incubation. The source says:
[formula] Z-138 Proliferation Assay
Z-138 suspension cells were purchased from ATCC (American Type Culture Collection, Manassas, Va.). RPMI/Glutamax medium, penicillin-streptomycin, heat inactivated fetal bovine serum were purchased from Life Technologies, Grand Island, N.Y., USA. V-bottom polypropylene 384-well plates were purchased from Greiner Bio-One, Monroe, N.C., USA. Cell culture 384-well white opaque plates were purchased from Perkin Elmer, Waltham, Mass., USA. Cell-Titer Glo® was purchased from Promega Corporation, Madison, Wis., USA. SpectraMax M5 plate reader was purchased from Molecular Devices LLC, Sunnyvale, Calif., USA.
Z-138 suspension cells were maintained in growth medium (RPMI 1640 supplemented with 10% v/v heat inactivated fetal bovine serum and cultured at 37° C. under 5% CO2. Under assay conditions, cells were incubated in assay medium (RPMI 1640 supplemented with 10% v/v heat inactivated fetal bovine serum and 100 units/mL penicillin-streptomycin) at 37° C. under 5% CO2.
For the assessment of the effect of compounds on the proliferation of the Z-138 cell line, exponentially growing cells were plated in 384-well white opaque plates at a density of 10,000 cells/ml in a final volume of 50 μl of assay medium. A compound source plate was prepared by performing triplicate nine-point 3-fold serial dilutions in DMSO, beginning at 10 mM (final top concentration of compound in the assay was 20 μM and the DMSO was 0.2%). A 100 nL aliquot from the compound stock plate was added to its respective well in the cell plate. […] After addition of compounds, assay plates were incubated for 5 days at 37° C., 5% CO2, relative humidity >90%.
Cell viability was measured by quantitation of ATP present in the cell cultures, adding 35 μl of Cell Titer Glo® reagent to the cell plates. Luminescence was read in the SpectraMax M5 microplate reader. The concentration of compound inhibiting cell viability by 50% was determined using a 4-parametric fit of the normalized dose response curves.
(In ATP-based viability assays light output follows the ATP content of the culture.)

By EC50 is commonly meant the concentration at which the effect is half-maximal.

On to `CN(C)S(=O)(=O)c1ccccc1OCC(=O)NC[C@H](O)CN1Cc2ccccc2C1` [compound 23], for which the half-maximal effective concentration (EC50) in assay [1] was under 0.1 µM; in assay [2], 0.101 to 1 µM.

As for `CN1CCOc2cccc(OCC(=O)NC[C@H](O)CN3Cc4ccccc4C3)c21` [compound 26], the EC50 is 0.101 to 1 µM in assay [1] and over 20 µM in assay [2].

Regarding `Cn1ncc2ccc(OCC(=O)NC[C@H](O)CN3Cc4ccccc4C3)cc21` [compound 27], the results for the EC50 in assay [1] and in assay [2] were 1 to 10 µM and over 20 µM, respectively.

As for `O=C(NC[C@H](O)CN1Cc2ccccc2C1)c1ccnc(NC2CCOCC2)c1` [compound 30], the concentration for a half-maximal effect (EC50) lay within 0.101 to 1 µM in assay [1] and 1 to 10 µM in assay [2].

With `O=C(NC[C@H](O)CN1Cc2ccccc2C1)c1cncc(NC2CCNC2)c1` (stereo partly drawn) [compound 32], the EC50 in assay [1] was 1 to 10 µM; in assay [2] it was over 20 µM.

Turning to `CS(=O)(=O)N1CCC(Nc2cncc(C(=O)NC[C@H](O)CN3Cc4ccccc4C3)c2)C1` (stereo partly drawn) [compound 33], the concentration giving a half-maximal response (EC50) is 0.101 to 1 µM in assay [1] and over 20 µM in assay [2].

The values are drawn from patent US10118918B2, “PRMT5 inhibitors and uses thereof” (Epizyme, Inc., priority 2012, dated 2018).
